Data reported in patent US20160346249A1 (priority 2012, published 2016).
Marks after values point to notes of the source that are not given here.

How the values were obtained:
human recombinant MAO-A = molecular target: T1, human recombinant MAO-A (Homo sapiens, UniProt P21397); experiment: Metabolism by recombinant MAO-A; assay type: in vitro ADME
T1 construct: purchased BD Biosciences, Woburn, Mass
T1 sequence (P21397 1-527): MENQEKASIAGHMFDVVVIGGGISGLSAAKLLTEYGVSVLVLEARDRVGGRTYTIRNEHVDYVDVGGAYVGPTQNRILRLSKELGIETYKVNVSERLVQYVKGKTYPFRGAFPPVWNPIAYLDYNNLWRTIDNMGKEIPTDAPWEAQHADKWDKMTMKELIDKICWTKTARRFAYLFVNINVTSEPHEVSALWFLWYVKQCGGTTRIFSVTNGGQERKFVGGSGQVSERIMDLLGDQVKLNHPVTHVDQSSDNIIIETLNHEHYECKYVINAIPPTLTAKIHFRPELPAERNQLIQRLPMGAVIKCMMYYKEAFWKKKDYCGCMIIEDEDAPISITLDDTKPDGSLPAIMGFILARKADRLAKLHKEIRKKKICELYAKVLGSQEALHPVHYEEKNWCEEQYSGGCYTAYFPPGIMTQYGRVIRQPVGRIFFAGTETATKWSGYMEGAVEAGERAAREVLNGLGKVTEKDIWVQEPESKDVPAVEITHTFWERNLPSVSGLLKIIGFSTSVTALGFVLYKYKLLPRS
Description: Incubation systems (ca. 0.2 mL) of human recombinant MAO-A (1.0 mg/mL) and MAO-B (1.0 mg/mL) (BD Biosciences, Woburn, Mass.) were prepared in triplicated 0.1 M potassium phosphate buffer (pH 7.4) (BD Biosciences, Woburn, Mass.). […] The negative samples were prepared as described above, with the exception that instead of HLM, HLmito, or recombinant enzymes, water was added to the incubation mixture.

[1] = NADPH dependent metabolism, human liver microsomes; assay type: in vitro ADME
Description: Bicifadine (10 μM) was used as the positive control and the formation of the lactam metabolites of bicifadine (M-12) was monitored.

[2] = Phase 2 efficacy study in patients with Major Depressive Disorder; assay type: in vivo, human
Excerpt: Subjects were identified who were between the ages of 18-65 (inclusive), and met criteria for Major Depressive Disorder in accordance with the Diagnostic and Statistical manual of Mental Disorders-IV-TR and confirmed by the MINI International Neuropsychiatric Interview.
Subjects were required to refrain from taking antidepressants, anticonvulsants including gabapentin and pregabalin, neuroleptics, MAO inhibitors, barbiturates, benzodiazepines, stimulants, antipsychotics, lithium, anxiolytics and beta blockers starting two weeks prior to the study and continuing until after the follow-up visit.
Samples were drawn to assess total bilirubin, alkaline phosphatase, ALT (SGPT), AST (SGOT), blood urea nitrogen (BUN), creatinine, glucose, uric acid, calcium, phosphorus, total protein, albumin, total cholesterol, LDL, HDL, triglycerides, sodium, potassium, bicarbonate, chloride, GGT and creatine kinase, Hepatitis B, C and HIV serologies, TSH, drug screen and serum pregnancy test for females.
Efficacy was determined by measuring the change from baseline in the Montgomery-Asberg Depression Rating Scale (MADRS), the HAMD-17, the Clinical Global Impression Global Improvement Scale (CGI-I), the Clinical Global Impression-Severity scale (CGI-S) and the Derogatis Interview for Sexual Functioning Self-Report (DISF-SR). […] Comparisons between treatment groups based on MADRS (the primary efficacy parameter), HAMD-17, Anhedonia, DISF-SR, CGI-I and CGI-S scores were analyzed using a mixed-repeated measures (MMRM) analysis model including factors for Subject, Visit, Treatment Arm and Baseline value as a covariate. Adjusted least-squares means from these models are presented. Comparisons between groups were made at each post-baseline visit using model-based contrasts and adjusted degrees of freedom. For these analyses no explicit data imputations were made prior to the analysis. Response and remission categorical data were analyzed using chi-square tests. Inferential analyses of safety data were conducted with ANOVA models or chi-square tests. Two-tail alpha was set to 0.05. All analyses were conducted using SAS version 9.2.

[3] = 100 mg, Visit 8, LOCF, Completers, 50% reduction or more of baseline total score
[4] = Visit 8 (Week 6), MMRM, MITT, n = 30

With `O=C1NCC2(c3ccc(Cl)c(Cl)c3)CC12` (stereo not shown) [EB-10101, 5-(3,4-dichloro-phenyl)-3-aza-bicyclo[3.1.0]hexan-2-one] the “MAO-A mediation of formation” value (human recombinant MAO-A; human recombinant MAO-A) was “MAO-A mediated”, the “EB-10101 formation rate (mean ± SD)” value (human recombinant MAO-A; recombinant MAO-A 1 mg/mL, EB-1010 1 μM, 30 min, underestimated (substrate limited)) was 7.0 ± 2.7^b pmol/min/mg protein and the “amount formed with NADPH vs without NADPH” value ([1]; HLM, from EB-1010 10 μM) was ~2 fold. For the same compound, the “share of lactam formed by enzymes other than CYPs or FMOs” value ([1]; human liver microsomes) was “about 50%”.
With `Clc1ccc([C@]23CNC[C@H]2C3)cc1Cl` [amitifadine, (+)-1-(3,4-dichlorophenyl)-3-azabicyclo[3.1.0]hexane] the “DISF-SR scores vs placebo” value ([2]; 100 mg, low and high baseline groups) was “no differences between (+)-1-(3,4-dichlorophenyl)-3-azabicyclo[3.1.0]hexane 100 mg and placebo”, the “Response rate, HAMD-17 (%)” value [2, 3] was 55.00% and the “Response rate, MADRS (%)” value [2, 3] was 40.00%. The “Remission rate, HAMD-17 (%)” value ([2]; 100 mg, Visit 8, LOCF, Completers, HAMD-17 ≦ 7) was 20.00%, the “Remission rate, MADRS (%)” value ([2]; 100 mg, Visit 8, LOCF, Completers, MADRS ≦ 12) was 30.00% and the “Anhedonia factor (LS Mean - SE)” value [2, 4] was 7.92 (0.50). For the same compound, the “CGI-I (LS Mean - SE)” value [2, 4] was 2.13 (0.20), the “CGI-S (LS Mean - SE)” value [2, 4] was 3.31 (0.15) and the “HAMD-17 (LS Mean - SE)” value [2, 4] was 14.90 (1.40). For the same compound, the “MADRS (LS Mean - SE)” value [2, 4] was 18.16 (1.21), the “MADRS, Difference (95% CI) placebo vs drug” value ([2]; Visit 8, MMRM, MITT, P = 0.028) was 3.83 (0.41, 7.26) and the “CGI-I, Difference (95% CI) placebo vs drug” value ([2]; Visit 8, MMRM, MITT, P = 0.030) was 0.62 (0.06, 1.18). For the same compound, the “Anhedonia factor, Difference (95% CI) placebo vs drug” value ([2]; Visit 8, MMRM, MITT, P = 0.049) was 1.41 (0.01, 2.82), the “HAMD-17, Difference (95% CI) placebo vs drug” value ([2]; Visit 8, MMRM, MITT, P = 0.125) was 3.12 (−0.87, 7.12) and the “CGI-S, Difference (95% CI) placebo vs drug” value ([2]; Visit 8, MMRM, MITT, P = 0.306) was 0.22 (−0.21, 0.66). For the same compound, the “Diastolic BP - Standing, Mean Change from baseline” value ([2]; Visit 8, Safety Population, n = 33, P value vs. placebo 0.017) was −3.00 mm Hg, the “Supine Pulse, Mean Change from baseline” value ([2]; Visit 8, Safety Population, n = 33, P value vs. placebo 0.145) was 1.55 beats per minute and the “LDL Cholesterol Fasting, Mean Change from baseline” value ([2]; Visit 8, Safety Population, n = 33, P value vs. placebo 0.374) was -4.29 mg/dL. The “Total Cholesterol Fasting, Mean Change from baseline” value ([2]; Visit 8, Safety Population, n = 33, P value vs. placebo 0.412) was -5.86 mg/dL, the “Systolic BP - Standing, Mean Change from baseline” value ([2]; Visit 8, Safety Population, n = 33, P value vs. placebo 0.509) was 0.069 mm Hg and the “Triglycerides Fasting, Mean Change from baseline” value ([2]; Visit 8, Safety Population, n = 33, P value vs. placebo […]) was -12.00 mg/dL. For the same compound, the “Systolic BP - Supine, Mean Change from baseline” value ([2]; Visit 8, Safety Population, n = 33, P value vs. placebo 0.904) was 2.58 mm Hg, the “Diastolic BP - Supine, Mean Change from baseline” value ([2]; Visit 8, Safety Population, n = 33, P value vs. placebo 0.961) was −0.38 mm Hg and the “Weight, Mean Change from baseline” value ([2]; Visit 8, Safety Population, n = 33, P value vs. placebo 0.965) was 0.078 kg. For the same compound, the “overall statistical effect size (Cohen's d), MADRS” value ([2]; Week 6) was −0.63, the “MADRS total score, estimated LS mean change from baseline (MMRM)” value ([2]; Week 6, placebo […], p=0.028) was 18.16 and the “patients who reported an adverse treatment event” value ([2]; human, in vivo) was 30.30%. For the same compound, the “Treatment-Emergent Adverse Event: Abdominal Pain (NOS), % of Patients” value ([2]; n = 33) was 6.06%, the “Treatment-Emergent Adverse Event: Abdominal Pain (NOS), number of patients” value ([2]; n = 33) was 2 and the “Treatment-Emergent Adverse Event: Anxiety, % of Patients” value ([2]; n = 33) was 6.06%. For the same compound, the “Treatment-Emergent Adverse Event: Anxiety, number of patients” value ([2]; n = 33) was 2, the “Treatment-Emergent Adverse Event: Diarrhea NOS, % of Patients” value ([2]; n = 33) was 6.06% and the “Treatment-Emergent Adverse Event: Diarrhea NOS, number of patients” value ([2]; n = 33) was 2. For the same compound, the “Treatment-Emergent Adverse Event: Emotional Disturbance NOS, % of Patients” value ([2]; n = 33) was 6.06%, the “Treatment-Emergent Adverse Event: Emotional Disturbance NOS, number of patients” value ([2]; n = 33) was 2 and the “Treatment-Emergent Adverse Event: Headache NOS, % of Patients” value ([2]; n = 33) was 9.09%. For the same compound, the “Treatment-Emergent Adverse Event: Headache NOS, number of patients” value ([2]; n = 33) was 3, the “Treatment-Emergent Adverse Event: Irritability, % of Patients” value ([2]; n = 33) was 6.06% and the “Treatment-Emergent Adverse Event: Irritability, number of patients” value ([2]; n = 33) was 2. The “Treatment-Emergent Adverse Event: Nausea, % of Patients” value ([2]; n = 33) was 6.06%, the “Treatment-Emergent Adverse Event: Nausea, number of patients” value ([2]; n = 33) was 2 and the “Treatment-Emergent Adverse Event: Rash NOS, % of Patients” value ([2]; n = 33) was 6.06%. The “Treatment-Emergent Adverse Event: Rash NOS, number of patients” value ([2]; n = 33) was 2, the “Treatment-Emergent Adverse Event: Upper Respiratory Tract Infection NOS, % of Patients” value ([2]; n = 33) was 6.06% and the “Treatment-Emergent Adverse Event: Upper Respiratory Tract Infection NOS, number of patients” value ([2]; n = 33) was 2.
